Assay results as given in patent publication US9133207B2, “Tetrandrine derivatives with substituted 5-carbon, preparation method and use thereof” (Hangzhou Bensheng Pharmaceutical Co., Ltd., priority 2011, dated 2015).
Converted amounts (≈) assume the structure as drawn.

Tests used:
[1] = tested on: H9 (acute lymphoblastic leukemia, ALL); test: Leukemia cell growth inhibition, MTT, 72 h (Example 5); type: cell-based, human; conditions: Homo sapiens; 72 h, MTT
Description: (§1) Leukemia cell lines: leukemia cell lines: K562/adr (drug-resistant, chronic myeloid leukemia, CML), NB4 (acute promyelocytic leukemia, AML), Kasumi-1 (acute myeloid leukemia M2 type, AML-M2), Jurkat (acute lymphoblastic leukemia, ALL), all of which are donated by Cancer Research Institute of Zhejiang University, China; and H9 (acute lymphoblastic leukemia, ALL), which is purchased from China Center for Type Culture Collection.
(§2) Reagents: The standard sample of tetrandrine (TTD) is purchased from Ci Yuan Biotechnology Co., Ltd., Shaanxi, China; and the 5-substituted tetrandrine derivatives of the present invention.
(§3) Obtaining 6000 well-growing leukemia cells and inoculating them into wells of a 96-well cell culture plate. The culture medium is a 1640 cell culture medium containing 10% fetal bovine serum. After adding the tetrandrine derivatives of different concentrations and mixing uniformly, placing the plate in a carbon dioxide cell incubator (5% CO2) at 37° C. and incubating for 72 hours. Then the viable cell concentration is determined by the MTT method.

[2] = tested on: Jurkat (acute lymphoblastic leukemia, ALL); test: as above; type: cell-based, human; conditions: Homo sapiens, Jurkat; 72 h, MTT
Description: as §1, §2, §3

[3] = tested on: K562/adr (drug-resistant, chronic myeloid leukemia, CML); test: as above; type: cell-based, human; conditions: Homo sapiens, K562/Adr; 72 h, MTT
Description: as §1, §2, §3

[4] = tested on: Kasumi-1 (acute myeloid leukemia M2 type, AML-M2); test: as above; type: cell-based, human; conditions: Homo sapiens, Kasumi 1
Description: as §1, §2, §3

[5] = tested on: NB4 (acute promyelocytic leukemia, AML); test: as above; type: cell-based, human; conditions: Homo sapiens; 72 h, MTT
Description: as §1, §2, §3

[6] = tested on: RPMI8226 (multiple myeloma); test: Multiple myeloma cell growth inhibition, MTT, 72 h (Example 6); type: cell-based, human; conditions: Homo sapiens, RPMI-8226; 72 h, MTT, RPMI8226
Method: Multiple myeloma and lymphoma cell lines: RPMI8226 (multiple myeloma), purchased from Fuxiang Bio-tech Co. Ltd., Shanghai, China.
(§4) Reagents: the same as in Example 5.
as §3, with “incubated” for “incubating”

[7] = tested on: CaES-17 (esophageal cancer cell); test: Solid tumor cell growth inhibition, MTT, 72 h (Example 7); type: cell-based, human; conditions: Homo sapiens, CaEs17; 72 h, MTT, CAES-17
Method: (§5) Human solid tumor cell lines: Hep-2 (laryngeal carcinoma), A549 (human lung cancer), CaES-17 (esophageal cancer cell), PC-3 (prostate cancer), CNE (nasopharyngeal carcinoma cell) and SK-OV-3 (ovarian cancer cell), all of which are purchased from China Center For Type Culture Collection; RKO (human colon adenocarcinoma cell), MGC 803 (human gastric cancer cell), MG63 (osteosarcoma), and U87 MG (malignant glioma cell), all of which are purchased from Fuxiang Bio-tech Co. Ltd., Shanghai, China; PANC-1 (pancreatic cancer), Huh? (human liver cancer cell), Becap37 (human breast cancer cell), and Hela (human cervical cancer cell), all of which are donated by Cancer Research Institute of Zhejiang University, China.
as §4
(§6) Obtaining 4000 well-growing human solid tumor cells and inoculating them into wells of a 96-well cell culture plate. The culture medium is DMEM High Glucose cell culture medium containing 10% fetal bovine serum. The plate is placed in a carbon dioxide cell incubator (5% CO2) at 37° C. and incubated for 24 hours. After been added with tetrandrine derivatives of different concentration and mixing uniformly, the plate is placed in a carbon dioxide cell incubator (5% CO2) at 37° C. and incubated for 72 hours. Then the viable cell concentration is determined by the MTT method and the cell viability (%) after drug treatment is calculated. In this experiment, the cell viability of control group (not treated with any compound) is set as 100%.

[8] = tested on: MG63 (osteosarcoma); test: as above; type: cell-based, human; conditions: Homo sapiens; 72 h, MTT, MG-63
Method: as §5, §4, §6

[9] = tested on: PANC-1 (pancreatic cancer); test: as above; type: cell-based, human; conditions: Homo sapiens; 72 h, MTT, PANC-1
Method: as §5, §4, §6

[10] = tested on: PC-3 (prostate cancer); test: as above; type: cell-based, human; conditions: Homo sapiens; 72 h, MTT, PC-3
Method: as §5, §4, §6

[11] = tested on: A549 (human lung cancer); test: as above; type: cell-based; conditions: Homo sapiens; 72 h, MTT, A549
Method: as §5, §4, §6

[12] = tested on: Becap37 (human breast cancer cell); test: as above; type: cell-based; conditions: Homo sapiens; 72 h, MTT, Becap-37
Method: as §5, §4, §6

[13] = tested on: Huh7 (human liver cancer cell); test: as above; type: cell-based; conditions: Homo sapiens; 72 h, MTT, Huh-7
Method: as §5, §4, §6

[14] = tested on: MGC 803 (human gastric cancer cell); test: as above; type: cell-based; conditions: Homo sapiens
Method: as §5, §4, §6

[15] = tested on: RKO (human colon adenocarcinoma cell); test: as above; type: cell-based; conditions: Homo sapiens; 72 h, MTT, RKO
Method: as §5, §4, §6

SMILES | IC50 [1] | IC90 [1] | IC50 [2] | IC90 [2] | IC50 [3] | IC90 [3] | IC50 [4] | IC90 [4] | IC50 [5] | IC90 [5] | IC50 [6] | IC90 [6] | IC50 [7] | IC90 [7] | IC50 [8] | IC90 [8] | IC50 [9] | IC90 [9] | IC50 [10] | IC90 [10] | further results
COc1ccc2cc1Oc1ccc(cc1)C[C@H]1c3cc(c(OC)cc3CCN1C)Oc1c(OC)c(OC)c(CN3CCN(c4ccccc4)CC3)c3c1[C@H](C2)N(C)CC3 [BS-TE-343] | 1.62 mg/L (≈ 2.03 µM) | 2.75 mg/L (≈ 3.45 µM) | 1.9 mg/L (≈ 2.38 µM) | 5.27 mg/L (≈ 6.61 µM) | 0.68 mg/L (≈ 0.853 µM) | 2.38 mg/L (≈ 2.99 µM) | 2.24 mg/L (≈ 2.81 µM) | 6.95 mg/L (≈ 8.72 µM) | 1.18 mg/L (≈ 1.48 µM) | 3.06 mg/L (≈ 3.84 µM) | 0.05 mg/L (≈ 0.0627 µM) | 0.7 mg/L (≈ 0.878 µM) | 2.09 mg/L (≈ 2.62 µM) | 8.09 mg/L (≈ 10.2 µM) | 1.15 mg/L (≈ 1.44 µM) | 2.47 mg/L (≈ 3.1 µM) | 2.84 mg/L (≈ 3.56 µM) | 4.84 mg/L (≈ 6.07 µM) | 2.72 mg/L (≈ 3.41 µM) | 4.28 mg/L (≈ 5.37 µM) | IC50 [11]: 3.54 mg/L (≈ 4.44 µM); IC90 [11]: 12 mg/L (≈ 15 µM); IC50 [12]: 6.96 mg/L (≈ 8.73 µM); IC90 [12]: 8.17 mg/L (≈ 10.3 µM); IC50 [13]: 2.14 mg/L (≈ 2.69 µM); IC90 [13]: 4.85 mg/L (≈ 6.09 µM); IC50 [14]: 1.1 mg/L (≈ 1.38 µM); IC90 [14]: 2.88 mg/L (≈ 3.61 µM); IC50 [15]: 2.25 mg/L (≈ 2.82 µM); IC90 [15]: 3.24 mg/L (≈ 4.07 µM)
COc1ccc2cc1Oc1ccc(cc1)C[C@H]1c3cc(c(OC)cc3CCN1C)Oc1c(OC)c(OC)c(CNC(C)C)c3c1[C@H](C2)N(C)CC3 [BS-TE-311] | 2.29 mg/L (≈ 3.3 µM) | 3.99 mg/L (≈ 5.75 µM) | 3.15 mg/L (≈ 4.54 µM) | 9.19 mg/L (≈ 13.2 µM) | 1.97 mg/L (≈ 2.84 µM) | 12 mg/L (≈ 17.3 µM) | 1.33 mg/L (≈ 1.92 µM) | 5.63 mg/L (≈ 8.11 µM) | 0.83 mg/L (≈ 1.2 µM) | 4 mg/L (≈ 5.76 µM) | 0.18 mg/L (≈ 0.259 µM) | 1.74 mg/L (≈ 2.51 µM) | 4.05 mg/L (≈ 5.84 µM) | 25.6 mg/L (≈ 36.9 µM) | 1.89 mg/L (≈ 2.72 µM) | 4 mg/L (≈ 5.76 µM) | 6.31 mg/L (≈ 9.09 µM) | 13.2 mg/L (≈ 19 µM) | 6.04 mg/L (≈ 8.7 µM) | 8 mg/L (≈ 11.5 µM) | IC50 [11]: 1.89 mg/L (≈ 2.72 µM); IC90 [11]: 9.07 mg/L (≈ 13.1 µM); IC50 [12]: 2.5 mg/L (≈ 3.6 µM); IC90 [12]: 7.86 mg/L (≈ 11.3 µM); IC50 [13]: 3.5 mg/L (≈ 5.04 µM); IC90 [13]: 4.9 mg/L (≈ 7.06 µM); IC50 [14]: 3.17 mg/L (≈ 4.57 µM); IC90 [14]: 11.8 mg/L (≈ 17 µM); IC50 [15]: 1.96 mg/L (≈ 2.82 µM); IC90 [15]: 4.25 mg/L (≈ 6.12 µM)
COc1ccc2cc1Oc1ccc(cc1)C[C@H]1c3cc(c(OC)cc3CCN1C)Oc1c(OC)c(OC)c(CN3CCOCC3)c3c1[C@H](C2)N(C)CC3 [BS-TE-307] | 0.87 mg/L (≈ 1.21 µM) | 1.99 mg/L (≈ 2.76 µM) | 3.08 mg/L (≈ 4.27 µM) | 13.2 mg/L (≈ 18.4 µM) | 0.25 mg/L (≈ 0.346 µM) | 7.8 mg/L (≈ 10.8 µM) | 1 mg/L (≈ 1.39 µM) | 4.79 mg/L (≈ 6.64 µM) | 0.73 mg/L (≈ 1.01 µM) | 4.35 mg/L (≈ 6.03 µM) | 0.07 mg/L (≈ 0.097 µM) | 0.42 mg/L (≈ 0.582 µM) | 1.1 mg/L (≈ 1.52 µM) | 18.8 mg/L (≈ 26.1 µM) | 0.82 mg/L (≈ 1.14 µM) | 2.32 mg/L (≈ 3.21 µM) | 3.47 mg/L (≈ 4.81 µM) | 8.88 mg/L (≈ 12.3 µM) | 2.88 mg/L (≈ 3.99 µM) | 6.99 mg/L (≈ 9.68 µM) | IC50 [11]: 2.3 mg/L (≈ 3.19 µM); IC90 [11]: 8 mg/L (≈ 11.1 µM); IC50 [12]: 1.79 mg/L (≈ 2.48 µM); IC90 [12]: 6.94 mg/L (≈ 9.61 µM); IC50 [13]: 3 mg/L (≈ 4.16 µM); IC90 [13]: 4.9 mg/L (≈ 6.79 µM); IC50 [14]: 3.74 mg/L (≈ 5.18 µM); IC90 [14]: 14.1 mg/L (≈ 19.6 µM); IC50 [15]: 0.95 mg/L (≈ 1.32 µM); IC90 [15]: 3.27 mg/L (≈ 4.53 µM)
